According to US20160355483A1, “COMPOUND BINDING TO PPARG BUT NOT ACTING AS PROMOTER AND PHARMACEUTICAL COMPOSITION FOR TREATING PPARG-RELATED DISEASES CONTAINING SAME AS ACTIVE INGREDIENT” (Hyundai Pharm Co., Ltd., priority 2014, published 2016):

The compounds below were run against T1, PPARG (peroxisome proliferator activated receptor-gamma), GST-PPARG-LBD (Homo sapiens, UniProt P37231) (assay: LanthaScreen TR-FRET PPARG Competitive Binding Assay). Conditions: degree of binding activity.
T1 construct: 15 μL of 5 nM GST-PPARG-LBD and 5 nM Tb-GST-antibody were added; purchased Invitrogen PV4894
T1 sequence (P37231 238-503 limits assumed): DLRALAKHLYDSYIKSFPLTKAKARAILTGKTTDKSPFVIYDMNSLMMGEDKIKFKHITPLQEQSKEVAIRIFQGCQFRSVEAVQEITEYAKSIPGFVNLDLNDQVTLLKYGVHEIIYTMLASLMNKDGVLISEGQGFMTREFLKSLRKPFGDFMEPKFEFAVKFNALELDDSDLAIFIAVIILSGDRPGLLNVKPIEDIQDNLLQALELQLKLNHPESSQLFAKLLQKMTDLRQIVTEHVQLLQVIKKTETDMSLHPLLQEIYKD
Set-up: key: “+” indicates the degree of the binding activity, and as the number of “+” increases, the binding activity is stronger; ++: “+” indicates the degree of the binding activity, and as the number of “+” increases, the binding activity is stronger; +++: “+” indicates the degree of the binding activity, and as the number of “+” increases, the binding activity is stronger; ++++: “+” indicates the degree of the binding activity, and as the number of “+” increases, the binding activity is stronger
Outline: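 Ratio of 518 nm to 488 nm time-resolved emission after a 1 h room-temperature incubation, in competition format with GST-PPARG ligand-binding domain. Values are expressed as 100% minus compound-to-vehicle ratio and related to rosiglitazone binding.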

Row | Structure (SMILES) | Binding assay (1 μLM)
1 | C[C@H](NC(=O)c1ccc2c(c1)CCCN2Cc1ccc(-c2ccccc2C(=O)O)cc1)c1cccc(Cl)c1 [Example 9, (S)-4′-((6-((1-(3-chlorophenyl)ethyl)carbamoyl)-3,4-dihydroquinoline-1(2H)-yl)methyl)-[1,1′-biphenyl]-2-caboxylic acid] | ++++
2 | O=C(NCc1ccccc1Br)c1ccc2c(c1)CCCN2Cc1ccc(-c2ccccc2C(=O)O)cc1 [Example 29, 4′-((6-((2-bromobenzyl)carbamoyl)-3,4-dihydroquinoline-1(2H)-yl)methyl)-[1,1′-biphenyl]-2-carboxylic acid] | ++++
3 | NC(=O)c1ccccc1-c1ccc(CN2CCCc3cc(C(=O)NCc4ccccc4)ccc32)cc1 [Example 50, N-benzyl-1-((2′-carbamoyl-[1,1′-biphenyl]-4-yl)methyl)-1,2,3,4-tetrahydroquinoline-6-carboxamide] | +++
4 | C[C@H](NC(=O)c1ccc2c(c1)CCCN2Cc1ccc(-c2ccccc2C(=O)O)cc1)c1ccc(SC(F)(F)F)cc1 [Example 13, (S)-4′-((6-((1-(4-((trifluoromethyl)thio)phenyl)ethyl)carbamoyl)-3,4-dihydroquinoline-1 (2H)-yl)methyl)-[1,1′-biphenyl]-2-carboxylic acid] | ++++
5 | C[C@H](NC(=O)c1ccc2c(c1)CCCN2Cc1ccc(-c2ccccc2C(N)=O)cc1)c1cccc(C(F)(F)F)c1 [Example 47, (S)-1-((2′-carbamoyl-[1,1′-biphenyl]-4-yl)methyl)-N-(1-(3-(trifluoromethyl)phenyl)ethyl)-1,2,3,4-tetrahydroquinoline-6-carboxamide] | +++
6 | Cc1ccc([C@H](C)NC(=O)c2ccc3c(c2)CCCN3Cc2ccc(-c3ccccc3C(=O)O)cc2)cc1F [Example 5, (S)-4′-((6-((1-(3-fluoro-4-methylphenyl)ethyl)carbamoyl)-3,4-dihydroquinoline-1(2H)-yl)methyl)-[1,1′-biphenyl]-2-caboxylic acid] | ++
7 | COc1cccc([C@H](C)NC(=O)c2ccc3c(c2)CCCN3Cc2ccc(-c3ccccc3C(N)=O)cc2)c1 [Example 40, (S)-1-((2′-carbamoyl-[1,1′-biphenyl]-4-yl)methyl)-N-(1-(3-methoxyphenyl)ethyl)-1,2,3,4-tetrahydroquinoline-6-carboxamide] | +++
8 | C[C@H](NC(=O)c1ccc2c(c1)CCCN2Cc1ccc(-c2ccccc2C(=O)O)cc1)c1ccc(Br)cc1 [Example 7, (S)-4′-((6-((1-(4-bromophenyl)ethyl)carbamoyl)-3,4-dihydroquinoline-1(2H)-yl)methyl)-[1,1′-biphenyl]-2-caboxylic acid] | ++++
9 | C[C@H](NC(=O)c1ccc2c(c1)CCCN2Cc1ccc(-c2ccccc2C(=O)O)cc1)c1cccc2ccccc12 [Example 10, (S)-4′-((6-((1-(naphthalene-1-yl)ethyl)carbamoyl)-3,4-dihydroquinoline-1(2H)-yl)methyl)-[1,1′-biphenyl]-2-carboxylic acid] | +++
10 | C[C@H](NC(=O)c1ccc2c(c1)CCCN2Cc1ccc(-c2ccccc2C(N)=O)cc1)c1ccc(OC(F)(F)F)cc1 [Example 34, (S)-1-((2′-carbamoyl-[1,1′-biphenyl]-4-yl)methyl)-N-(1-(4-(trifluoromethoxy)phenyl)ethyl)-1,2,3,4-tetrahydroquinoline-6-carboxamide] | ++++
11 | C[C@H](NC(=O)c1ccc2c(c1)OCCN2Cc1ccc(-c2ccccc2C(=O)O)cc1)c1ccc(Br)cc1 [Example 61, (S)-4′-((7-((1-(4-bromophenyl)ethyl)carbamoyl)-2H-benzo[b][1,4]oxazine-4(3H)-yl)methyl)-[1,1′-biphenyl]-2-carboxylic acid] | ++
12 | NC(=O)c1ccccc1-c1ccc(CN2CCCc3cc(C(=O)NCc4ccc5c(c4)OCCO5)ccc32)cc1 [Example 52, 1-((2′-carbamoyl-[1,1′-biphenyl]-4-yl)methyl)-N-((2,3-dihydrobenzo[b][1,4]dioxin-6-yl)methyl)-1,2,3,4-tetrahydroquinoline-6-carboxamide] | +++
13 | C[C@H](NC(=O)c1ccc2c(c1)OCCN2Cc1ccc(-c2ccccc2C(=O)[O-])cc1)c1ccccc1.[Na+] [Example 103, sodium (S)-4′-((7-((1-phenylethyl)carbamoyl)-2H-benzo[b][1,4]oxazine-4(3H)-yl)methyl)-[1,1′-biphenyl]-2-carboxylate] | ++

Other lines, results leading:

Row | Binding assay (1 μLM) | Structure (SMILES)
14 | + | O=C(NCc1ccco1)c1ccc2c(c1)OCCN2Cc1ccc(-c2ccccc2C(=O)O)cc1 [Example 69, 4′-((7-((furan-2-ylmethyl)carbamoyl)-2H-benzo[b][1,4]oxazine-4(3H)-yl)methyl)-[1,1′-biphenyl]-2-carboxylic acid-A]
15 | +++ | Cc1ccc([C@H](C)NC(=O)c2ccc3c(c2)CCCN3Cc2ccc(-c3ccccc3C(N)=O)cc2F)cc1F [Example 114, (S)-1-((2′-carbamoyl-3-fluoro-[1,1′-biphenyl]-4-yl)methyl)-N-(1-(3-fluoro-4-methylphenyl)ethyl)-1,2,3,4-tetrahydroquinoline-6-carboxamide]
16 | + | COC(=O)c1ccc(CNC(=O)c2ccc3c(c2)OCCN3Cc2ccc(-c3ccccc3C(=O)O)cc2)cc1 [Example 71, 4′-((7-((4-(methoxycarbonyl)benzyl)carbamoyl)-2H-benzo[b][1,4]oxazine-4(3H)-yl)methyl)-[1,1′-biphenyl]-2-carboxylic acid]
17 | +++ | C[C@H](NC(=O)c1ccc2c(c1)OCCN2Cc1ccc(-c2ccccc2C(=O)O)cc1)c1cccc(C(F)(F)F)c1 [Example 86, (S)-4′-((7-((1-(3-(trifluoromethyl)phenyl)ethyl)carbamoyl)-2H-benzo[b][1,4]oxazine-4(3H)-yl)methyl)-[1,1′-biphenyl]-2-carboxylic acid]
18 | +++ | C[C@H](NC(=O)c1ccc2c(c1)CCCN2Cc1ccc(-c2ccccc2C(N)=O)cc1F)c1ccccc1 [Example 107, (S)-1-((2′-carbamoyl-3-fluoro-[1,1′-biphenyl]-4-yl)methyl)-N-(1-phenylethyl)-1,2,3,4-tetrahydroquinoline-6-carboxamide]
19 | +++ | O=C(NCc1ccccc1Br)c1ccc2c(c1)OCCN2Cc1ccc(-c2ccccc2C(=O)O)cc1 [Example 92, 4′-((7-((2-bromobenzyl)carbamoyl)-2H-benzo[b][1,4]oxazine-4(3H)-yl)methyl)-[1,1′-biphenyl]-2-carboxylic acid]
20 | + | O=C(NCc1cccnc1)c1ccc2c(c1)OCCN2Cc1ccc(-c2ccccc2C(=O)O)cc1 [Example 89, 4′-((7-((pyridine-3-ylmethyl)carbamoyl)-2H-benzo[b][1,4]oxazine-4(3H)-yl)methyl)-[1,1′-biphenyl]-2-carboxylic acid]
21 | + | C[C@H](NC(=O)c1ccc2c(c1)CCCN2Cc1ccccc1-c1ccc(C(N)=O)cc1)c1ccc([N+](=O)[O-])cc1 [Example 159, (S)-1-((4′-carbamoyl-[1,1′-biphenyl]-2-yl)methyl)-N-(1-(4-nitrophenyl)ethyl)-1,2,3,4-tetrahydroquinoline-6-carboxamide]
22 | ++++ | C[C@H](NC(=O)c1ccc2c(c1)CCCN2Cc1cccc(-c2ccccc2C(N)=O)c1)c1ccc2ccccc2c1 [Example 124, (S)-1-((2′-carbamoyl-[1,1′-biphenyl]-3-yl)methyl)-N-(1-(naphthalene-2-yl)ethyl)-1,2,3,4-tetrahydroquinoline-6-carboxamide]
23 | +++ | Cc1ccc([C@H](C)NC(=O)c2ccc3c(c2)CCCN3Cc2cc(-c3ccccc3C(N)=O)ccc2F)cc1F [Example 141, (S)-1-((2′-carbamoyl-4-fluoro-[1,1′-biphenyl]-3-yl)methyl)-N-(1-(3-fluoro-4-methylphenyl)ethyl)-1,2,3,4-tetrahydroquinoline-6-carboxamide]
24 | ++ | C[C@H](NC(=O)c1ccc2c(c1)CCCN2Cc1ccccc1-c1ccc(C(N)=O)cc1)c1ccccc1 [Example 153, (S)-1-((4′-carbamoyl-[1,1′-biphenyl]-2-yl)methyl)-N-(1-phenylethyl)-1,2,3,4-tetrahydroquinolin-6-carboxamide]
25 | ++++ | C[C@H](NC(=O)c1ccc2c(c1)CCCN2Cc1ccc(-c2ccccc2C(=O)O)cc1F)c1ccccc1 [Example 106]
26 | +++ | C[C@H](NC(=O)c1ccc2c(c1)OCCN2Cc1ccc(-c2ccccc2C(=O)O)cc1)c1cccc(OC(F)(F)F)c1 [Example 85, (S)-4′-((7-((1-(3-(trifluoromethoxy)phenyl)ethyl)carbamoyl)-2H-benzo[b][1,4]oxazine-4(3H)-yl)methyl)-[1,1′-biphenyl]-2-carboxylic acid]
27 | ++ | C[C@H](NC(=O)c1ccc2c(c1)OCCN2Cc1ccc(-c2ccccc2C(=O)O)cc1)c1ccc(C(C)(C)C)cc1 [Example 78, (S)-4′-((7-((1-(4-(tert-butyl)phenyl)ethyl)carbamoyl)-2H-benzo[b][1,4]oxazine-4(3H)-yl)methyl)-[1,1′-biphenyl]-2-carboxylic acid]
